Two molecules from publication PMC11732987, “Enantioselective OTUD7B fragment discovery through chemoproteomics screening and high-throughput optimisation” (Communications Chemistry, 2025) can be followed below.

Assay [1] has as its target T1, OTUD7B (Homo sapiens, UniProt Q6GQQ9).
T1 sequence (Q6GQQ9 129-438): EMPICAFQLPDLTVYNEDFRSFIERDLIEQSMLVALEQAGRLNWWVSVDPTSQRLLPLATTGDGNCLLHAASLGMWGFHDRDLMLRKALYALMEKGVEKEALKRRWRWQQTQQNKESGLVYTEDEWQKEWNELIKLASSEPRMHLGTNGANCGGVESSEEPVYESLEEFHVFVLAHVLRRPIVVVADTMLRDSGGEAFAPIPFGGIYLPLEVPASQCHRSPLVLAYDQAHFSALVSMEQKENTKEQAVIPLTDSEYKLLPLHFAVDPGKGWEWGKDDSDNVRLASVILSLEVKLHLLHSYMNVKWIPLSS
The assay is described as follows: Ub-Rho110Gly DUB activity assay; also intact protein LC-MS kinetics (kinact/KI […] ^-1 s^-1), lysate ABPP (TE50 […]). It counts as biochemical. The arrangement: OTUD7B aa129-438 (intact protein LC-MS).

Assay [2] concerns the target T1, OTUD7B. The assay is described as follows: Ub-Rho110Gly DUB activity assay; also intact protein LC-MS kinetics (kinact/KI […] ^-1 s^-1), SiteID LC-MS/MS, lysate ABPP (TE50 […]). It counts as biochemical. The arrangement: OTU domain; OTUD7B aa129-438 (intact protein LC-MS), aa129–538 (SiteID).

The structures appear in SMILES notation.

Regarding `O=C(CCl)N[C@@H]1CCCc2ccccc21` [compound 30], the IC50 (commonly the midpoint of a concentration-inhibition curve) on OTUD7B [1] turned out to be 58.3 µM. Turning to `O=C(CCl)N[C@H]1CCCc2ccccc21` [compound 29], the IC50 at OTUD7B [2] is 3.5 µM.
